Patent publication US20210055311A1, “SCREENING METHOD FOR ESTROGENIC AND ANTI-ESTROGENIC ACTIVITY” (BUNDESINSTITUT FÜR RISIKOBEWERTUNG, priority 2018, published 2021)

What was measured:
Assay type in all cases: cell-based, human
[1] = system: MCF-7/vBOS breast cancer cells; assay: Cell stiffness by atomic force microscopy (AFM) indentation
Procedure: (§1) FIG. 10 illustrates that inhibition of ERα signaling increases tissue stability by modulating cell mechanics and cell motility. (A) Quantification of cell stiffness (Apparent elastic (Young's) modulus) by atomic force microscopy (AFM) indentation measurements on cells treated with fulvestrant for 48 hours (ERepl.1=0.7141±0.1193 kPa; ERepl.2=0.651±0.1407 kPa; ERepl.3=0.5938±0.1564 kPa; mean±s.d.) compared to solvent control cells (, ERepl.1=0.4841±0.1194 kPa; ERepl.2=0.4088±0.1513 kPa; ERepl.3=0.4660±0.1189 kPa). Biological replicates, n=3; 50-60 cells per condition. Boxes, 25th, 50th (median), and 75th percentiles. Whiskers, 10th and 90th percentiles. Cross, mean for each group. Statistical testing, Mann-Whitney tests; **, p values<0.01. (B) Quantification of cell motility (velocity) by manual tracking of cells treated with fulvestrant for 48 hours (VRepl.1=0.0613±0.0176 μm/min; VRepl.2=0.0553±0.0157 μm/min; VRepl.3=0.051±0.014 μm/min; mean±s.d.) compared to solvent control cells (VRepl.1=0.113±0.0237 μm/min; VRepl.2=0.0757±0.023 μm/min; VRepl.3=0.0827±0.0174 μm/min). Biological replicates, n=3; 3 fields with 10 cells each per replicate and condition were imaged every 10 minutes over the course of 16 h. Boxes, 25th, 50th (median), and 75th percentiles. Whiskers, 10th and 90th percentiles. Cross, mean for each group. Statistical testing, Mann-Whitney tests; **, p values<0.01.
To test whether anti-estrogens also impact on the biomechanical properties of MCF-7/vBOS breast cancer cells, the inventors performed atomic force microscopy (AFM) indentation measurements on confluent monolayers. For this purpose, MCF7/vBos cells were grown and treated in 35 mm FluoroDish cell culture dishes (WPI) as described above. AFM indentation measurements were performed in CO2 Independent Medium (Gibco) at 37° C. using the NanoWizard 1 or 4 (JPK Instruments). Prior to measurements, tip-less Arrow-TLlsilicone cantilevers (Nanoworld) were equipped with polystyrene beads of 5 μm in diameter (microParticles GmbH, Germany) using epoxy glue, and calibrated using built-in procedures of the SPM software (JPK Instruments). The cantilever was positioned above the confluent epithelial monolayer and lowered with a speed of 10 μm/s. In each experiment, force-distance curves (force setpoint 2.5 nN) from 3-4 different positions per cell were collected. Force-distance curves were transformed into force-versus-tip sample separation curves according to Radmacher (Methods Cell Biol 2002; 68:67-90), and fitted with the Hertz/Sneddon model (27) for a spherical indenter using the JPK Data Processing software (JPK Instruments). […] Apparent elastic (Young's) moduli were determined using the Hertz model for a quadratic pyramid using the JPK Data Processing software (JPK Instruments).

[2] = system: MCF-7/vBOS breast cancer cells; assay: Cell motility by manual tracking in confluent monolayer after scratch
Procedure: as §1
Given that anti-estrogens increase adherens junction stability and cell rigidity, the inventors asked whether cell motility was likewise affected.

[3] = system: MCF7/vBOS cells (DSM ACC3321); assay: Formation of discontinuous basolateral adherens junctions upon anti-estrogen exposure (E-Cadherin immunofluorescence)
[4] = treated 48 hours, mean±s.d., replicate 1
[5] = treated 48 hours, mean±s.d., replicate 2
[6] = treated 48 hours, mean±s.d., replicate 3

C[C@]12CC[C@@H]3c4ccc(O)cc4C[C@@H](CCCCCCCCC[S+]([O-])CCCC(F)(F)C(F)(F)F)[C@H]3[C@@H]1CC[C@@H]2O (stereo partly drawn) [Fulvestrant]
cell rigidity ([1]; throughout the cell surface and at junctional regions, vs solvent control): significantly elevated | Apparent elastic (Young's) modulus, Repl.1 [1, 4]: 0.7141±0.1193 kPa | Apparent elastic (Young's) modulus, Repl.2 [1, 5]: 0.651±0.1407 kPa | Apparent elastic (Young's) modulus, Repl.3 [1, 6]: 0.5938±0.1564 kPa | cell motility (velocity), Repl.1 [2, 4]: 0.0613±0.0176 μm/min | cell motility (velocity), Repl.2 [2, 5]: 0.0553±0.0157 μm/min | cell motility (velocity), Repl.3 [2, 6]: 0.051±0.014 μm/min | velocity of cells ([2]; vs solvent control): significantly reduced | length of cell trajectories ([2]; vs solvent control, data not shown): significantly reduced | change in adherens junctions morphology on staining β-Catenin, α-Catenin, p120-Catenin or cortical actin cytoskeleton ([3]; 10^−8 M, at least 48 h): also observable | manifestation of phenotype after short exposure ([3]; exposure for only 2 hours, read after 48 hours in media w/o fulvestrant): lead to manifestation of the discontinuous basolateral adherens junctions phenotype | stability of discontinuous adherens junctions independent of the presence of fulvestrant ([3]; fulvestrant 24 hours, then 24 or 48 hours in fulvestrant-free medium): at least 48
